Values quoted from earlier work, collected in patent publication US11608326B2, “Synthetic receptors for ionophoric compounds” (Universiteit Gent, priority 2018, dated 2023).

Assays:
[1] = tested on: human leukemia cells; conditions: 3 μM, overnight incubation
[2] = tested on: human neural (Paju) cells

In the case of beauvericin, the “drop of survival rate” value [1] is given as 80% and the “concentration sufficient to cause depolarization” value [2] is given as “low μM concentrations”.
